row,Structure (SMILES),melting point
1,C=C(C)COc1ccc2c(=O)c(C)c(-c3ccccc3)oc2c1C(=O)C=Cc1ccccc1,145 to 147 °C
2,CC(C)c1nc(C(N)=O)c2n1-c1ccc(Cl)cc1C(c1ccccc1Cl)=NC2,328 to 330 °C
3,COC(=O)C(Cc1ccc(OCCn2ccc3ccc(C(=O)C4CC4)nc32)cc1)OCC(F)(F)F (stereo unspecified),123 °C
4,CC(C)c1ncc(CCCOc2nn(Cc3ccccc3)cc2CC(=O)O)c(Oc2ccc(Cl)cc2Cl)n1,98 to 99 °C
5,CC(n1cncn1)C(O)(Cn1cncn1)c1ccc(F)cc1F (stereo unspecified),115 to 116 °C
6,CC1C(=O)Nc2ccc(Cl)cc2N1C1CC1 (racemic),167 °C
7,CC(=O)Oc1cc2c(cc1OC(C)=O)OCC(c1ccccc1)C2 (stereo unspecified),102 °C
8,COc1cc(OC)nc(Oc2cccc3c2C(=O)OC3O)n1 (stereo unspecified),143 to 145 °C
9,Cc1c(SCCCN2CCN(Cc3ccc(Cl)s3)CC2)ccnc1CSc1nc2cc(F)ccc2[nH]1,116 to 119 °C
10,CCc1cc(CCN2C(=O)c3ccccc3C2=O)c(OC)nc1C,77 to 79 °C
11,C=CCn1c(C)c(C)c2cnnc(OCc3ccc(F)cc3F)c21,125 to 126 °C
12,CCOC(=O)N(CCOc1ccc(Oc2ccc(F)cc2)cc1)C(=O)OCC,52 to 53 °C
13,O=C(O)C(Sc1nc2cc(Cl)ccc2s1)c1ccccc1 (stereo unspecified),190 to 192 °C
14,CC1(c2ccccc2)OC(C=Cc2ccsc2)=CC1=O (stereo unspecified),75 to 77 °C
15,Cc1ccc(C(=O)NCCC(=O)OCc2ccccc2)c(NC(=O)C(CCCNC(=N)N[N+](=O)[O-])NC(=O)OCc2ccccc2)c1 (stereo unspecified),154 to 156 °C
16,O=Cc1c(N2CCNCC2)n(-c2ccccc2)c2ccccc12,175 °C
17,O=C(NCC(c1ccccc1)c1ccccc1)N1CCC(=C(c2ccccc2)c2ccccc2)CC1,158 to 160 °C
18,CCc1nccc2c(CC(=O)O)cccc12,166 to 181 °C
19,COc1ccc([C@@H]2OC(=O)N[C@@H]2Cc2ccc(C(F)(F)F)cc2)cc1 (racemic),164 to 165 °C
20,CN(C)CC1COc2ccc(NC(=O)c3ccc(-c4ccc(Cl)cc4)cc3)cc2O1 (stereo unspecified),158 to 159 °C
21,COc1ccc2c(c1)C(=O)N(c1ccc3c(c1)N(C)CCN3C)C2,137 to 142 °C
22,CN(C)C(=O)c1c(C(=O)NN=Cc2ccc3ccccc3c2)[nH]c2ccccc12,256 to 260 °C
23,COc1ccc(-n2nc(NC(=O)N(C)C)cc2-c2ccc(OCCNC(N)=O)cc2)cc1,193 to 196 °C
24,Cc1ccc(-c2ccc(S(=O)(=O)N3CCN(C(=O)C4CCN(c5ccncc5)CC4)CC3)cc2)cc1,213 to 217 °C

row,Structure (SMILES),melting point
1,O=C(CCCCCBr)N1Cc2ccccc2C1,88 °C
2,Cc1cc2c(cc1C)C(=O)C(=O)N2,217 to 218 °C
3,C#CCOc1cc(Oc2cccc(Cl)c2Cl)ncn1,91.9 °C
4,OCCCc1cccc(CCCO)c1O,176 to 187 °C
5,O=Nc1c(-c2ccc(Cl)cc2)nc2sc3ccccc3n12,203 to 206 °C
6,O=S(=O)(N[C@H]1CC[C@H](CCN2CCN(c3nccc4c3CCO4)CC2)CC1)c1ccc(F)cc1,221 °C
7,c1ccc2c(c1)CCc1c-2noc1N1CCCNCC1,79 to 81 °C
8,O=[N+]([O-])c1cc2c(Nc3ccc(F)c(Cl)c3)ncnc2cc1O[C@@H]1CCOC1,244 °C
9,Nc1c2c(nc3ccccc13)CCCC2N1CCC(c2ccccc2)CC1 (stereo unspecified),189 to 190 °C
10,CCOC(=O)C1=C(NC(=O)Nc2cc(C(=O)OC(C)C)c(Br)cc2F)CCC1,150 to 154 °C
11,CC1=C(C#N)C(C)(c2ccccc2)C(C#N)=C(C)N1,195 to 196 °C
12,Cc1cc(C)c(C2C(=O)CCCC2=O)c(C)c1,196 to 198 °C
13,Nc1ccc(OC(F)(F)F)c(-c2nc3ccccc3o2)c1,133 to 135 °C
14,CCCCCCN(Cc1ccccn1)C(Nc1cc(C(C)(C)C)c(O)c(C(C)(C)C)c1)=C1C(=O)OC(C)(C)OC1=O,169 to 170 °C
15,Cc1nc(CN(C)C)n2c1CN=C(c1ccccc1Cl)c1cc(Cl)ccc1-2,185 to 186 °C
16,COc1cc(NC(=O)C(C#N)=CNc2ccsc2)c(Cl)cc1Cl,> 250 °C
17,COC(=O)CCCOc1ccc2ccc(O)cc2c1,122 to 125 °C
18,CS(=O)c1ccc(F)c(-c2nc3ncccc3[nH]2)c1 (stereo unspecified),190 to 192 °C
19,O=C(NNC(=O)c1cccc([N+](=O)[O-])c1)c1ccc([N+](=O)[O-])cc1,250 to 251 °C
20,CCCCCCOc1nc(N)nc2c1ncn2C1C=CC(CO)C1 (stereo unspecified),90 to 92 °C
21,COc1ccccc1N1CCN(CCCNC(=O)c2cc(N)cc3c(=O)c(C)c(-c4ccccc4)oc23)CC1,218 to 219 °C
22,CCOCc1nc2c(N)nc(C)c(C)c2n1NCCCNC(=O)NC(C)C,203 to 205 °C
23,c1ccc([C@H]2C[C@@H]2Nc2cc(-c3ccco3)nc(-c3nccs3)n2)cc1 (relative stereo),90 to 91.9 °C
24,CS(=O)(=O)Nc1ccc(C(=O)c2ccccc2)cc1,145 to 147 °C

row,Structure (SMILES),melting point
1,CCCC1(CCC)c2ccccc2-c2cc3c(cc21)OCN3c1c(O)ccc2oc3ccccc3c12,304 to 305 °C
2,CCOC(=O)N1CCCC(Nc2nc3cncnc3n2Cc2ccc(F)cc2)CC1 (stereo unspecified),157 °C
3,CCCOc1ccccc1-c1nc2nc(NCCCS(C)=O)ncc2c(=O)[nH]1 (stereo unspecified),188 to 189 °C
4,N#Cc1cc(-n2cccc2)cnc1Cl,144 to 146 °C
5,CN(CCOc1ccc(C=CC=O)cc1F)c1ccccn1,93 to 94 °C
6,O=C1CCC(N2C(=O)c3cccc(OCc4nc(CN5CCOCC5)cs4)c3C2=O)C(=O)N1 (stereo unspecified),210 to 212 °C
7,C=C(C)C=CCC(C)C1CCC2(C)C1(C)CCC1C3(C)CCC(OC(C)=O)CC3CCC12C (stereo unspecified),120 to 125 °C
8,C=CCN1C(=O)N(c2ccc([N+](=O)[O-])c(C(F)(F)F)c2)C(=O)C1(C)C,105 °C
9,COc1ccc2cc(CC3=C(CC(=O)O)CCCC3=O)ccc2c1Br,165 to 166 °C
10,O=C(Nc1cc2ccccc2oc1=O)c1ccccc1NCc1ccncc1,195 to 197 °C
11,CCC(=O)n1c(=O)[nH]c(=O)n1C(=O)CC,208 °C
12,CCCCN(CCCC)Cc1nnc(-c2ncn3c2CN(C)C(=O)c2ccccc2-3)o1,211 to 213 °C
13,CCOC(=O)[C@H](COCc1ccccc1)NC(=O)C(C)(C)NC(=O)[C@@H](SC(C)=O)C(C)C,55 to 57 °C
14,C=CC[C@@]1(NC(=O)OC(C)(C)C)C(=O)[C@@H](C(C)C)N(C(=O)OC(C)(C)C)C1=O,83 °C
15,CC(=O)c1ncn2c1CN=C(c1ccccc1Cl)c1cc(Cl)ccc1-2,214 to 216 °C
16,CCOC(=O)c1cc(-c2ccccc2)n(-c2cccc(C)c2)c1C,103 to 104 °C
17,CC(=O)C1CCC2C3CCC4CC(OC(=O)C(F)(F)F)CCC4(C)C3C(=O)CC12C (stereo unspecified),107 to 108 °C
18,COc1ccc(Nc2nc(NC3CCCCCC3)nc(Oc3ccc(C=O)cc3)n2)cc1Cl,218 to 220 °C
19,CC(C)C[C@H](NC(=O)OCc1ccccn1)C(=O)N[C@@H](Cc1ccccc1)C(=O)CSCc1ccco1,93 to 94 °C
20,O=C(O)c1cc(S(=O)(=O)Cl)cc(S(=O)(=O)Cl)c1O,185 to 187 °C
21,O=Cc1ccc(N(CCO)CCO)cc1,63 to 64 °C
22,CC(C)(C)CCCOC1CCC2C3C(=O)C=C4CC(O)CCC4(C)C3CCC12C (stereo unspecified),203 to 205 °C
23,O=[N+]([O-])c1cc(O)c(OCCOCCO)cc1[N+](=O)[O-],135 °C
24,CCOC(=O)c1cc2cccc(N(C)C(=O)c3cccs3)c2[nH]1,193 °C

row,Structure (SMILES),melting point
1,CC(C)S(=O)(=O)Nc1ccc2c(=O)c3c(sc2c1)CC(C)(C)CC3,263 °C
2,C#CCOc1cc(Oc2ccccc2Cl)ncn1,76.2 °C
3,N#Cc1cc2c(nc1N1CCCCCC1)CCCC2=O,76 to 78 °C
4,CCC(=O)NCC1CN=C(c2ccccc2F)c2cc(Cl)ccc2N1 (stereo unspecified),131 to 133 °C
5,CCCCCC(C)C(C)c1cc(OC)c2c(c1)OC(C)(C)C1=C2CN(C(=N)OC)CC1 (stereo unspecified),134 to 136 °C
6,CN(C)Cc1ccc(C(=O)Nc2nc(-c3ccco3)c(C(=O)C3CCOCC3)s2)cc1,109 to 112 °C
7,N#CC=Cc1ccc(C=Cc2ccc(C=CC#N)cc2)cc1,219 to 221 °C
8,Cn1nccc1CCS(=O)(=O)Cc1ccc(OCc2coc(C=Cc3ccc(C(F)(F)F)cc3)n2)cc1,204 °C
9,FC(F)(F)c1ccc(-c2cc(C(F)(F)F)n3ncc(-c4cccnc4)c3n2)cc1,163 °C
10,COc1cc2c(Nc3ccc(Sc4ccccn4)c(Cl)c3)c(C#N)cnc2cc1F,225 to 228 °C
11,CCOCc1nc2c(N)nc3ccc(OCc4ccccc4)cc3c2n1CCCCN(C(N)=O)c1ccccc1,186 to 188 °C
12,CCNC(=O)C(C)Oc1ncn(-c2cccc(C(F)(F)F)c2)n1 (stereo unspecified),135 to 137 °C
13,CCS(=O)(=O)c1cnc(Cl)c(Cl)c1,141 to 142 °C
14,O=C(O)COc1cc2c(c(Cl)c1Cl)C(=O)C(Cl)(C1CCCCC1)C2 (stereo unspecified),142 to 145 °C
15,N#Cc1ccc(O)c(NC(=O)C(=O)O)c1,> 300 °C
16,"CCCCS(=O)(=O)NC1Cc2ccc(C3=NNC(=O)CC3)cc2C1 (single isomer, unassigned; (+))",173 to 174 °C
17,CC(C)c1cccc(C(C)C)c1NC(=O)NCC1(S(=O)(=O)c2ccccc2)CCCC1,124 °C
18,CC12CCC3C(CC(O)C4CC(=O)CCC43C)C1CCC2O (stereo unspecified),195 to 205 °C
19,COC(=O)c1nc(Cl)sc1-c1cccc(F)c1,99 to 100 °C
20,O=C(Nc1ccc(N2CCNCC2)cc1)c1ccccc1-c1ccc(C(F)(F)F)cc1,119 to 124 °C
21,CC(=O)OCCn1c2c(c3ccccc3c1=O)C(=O)c1ccccc1-2,221 to 224 °C
22,CNc1nc(N(C2CC(C)(C)N(O)C(C)(C)C2)C2CC(C)(C)N(O)C(C)(C)C2)nc(N(C2CC(C)(C)N(O)C(C)(C)C2)C2CC(C)(C)N(O)C(C)(C)C2)n1,254 to 257 °C
23,Nc1ccc(S(=O)(=O)c2cc(Cl)nc(Cl)c2)cc1,190 to 192 °C
24,NC(=O)c1ccccc1N1CCOCC1,112 to 119 °C

# Reference: a melting point compilation (Tetko et al.; mined from patent text by program, amines drawn as free bases though some values may be those of a salt)
